In US5708000A, “N4-substituted cytosinyl 1,3-oxathiolane nucleoside analogues, and their antiviral activity” (Laboratoire Laphal, priority 1994, dated 1998):
Where two headings read alike, the source gives them in different places.

Key:
[1] = tested on: HIV-1 virus (BRU) in MT4 cells; test: Anti-HIV test: inhibition of HIV-1 replication (syncitia formation) in infected MT4 cells; format: cell-based
Text: The evaluation of the antiviral action is based on the study of cytopathogenic effect of HIV-1 Virus on the cell line MT4. The cell line MT4 has as an origin T cells isolated from a patient, transformed by the […]. The cytopathogenic effect of HIV-1 virus is shown by the formation of multinucleated giant cells called <> visible under the microscope. This effect of HIV-1 is observed 4 to 5 days after infection. It is followed with the death of cells.
The cytopathogenic effect is directly correlated to the infection of the cells by the virus, to its intracellular replication and to the expression of viral antigens by the cells. An inhibition of this effect thus corresponds to an inhibition of the multiplication of HIV-1 virus.
The MT4 cells are maintained at 3.10^5 cells/ml in a RPMI 1640 medium : 10% of decomplemented fetal calf serum for 30 mn at 56° C. (hormons, serum growth factors . . . ), 1% glutamine, 1% penicillin streptomycin and 2 μg/ml Polyren which promotes the viral adhesion to the cells.
The action of the treatment by the anti-viral agent is continuous. In fact this effect is present before during and after the viral infection. Successive dilutions are performed in the 10% fetal calf serum to be able to cultivate the MT4 cells for 8 days and to observe the formation of syncithias.
Before infection : 3×10^6 cells/100 μl are distributed in a microtiter plate with 96 wells and centrifugated for 3 min. at 2000 rpm (rounds per minute). The pellet is then pre-incubated for 1 hour at 37° C., with 100 μl of various concentrations of the anti-viral agent to be tested.
Infection : The infection is achieved in microwells while adding 100 TCIU (infection units) of HIV-1 virus (this titer of HIV-1 virus is determined as to induce the formation of syncithias in 4 or 5 days). The anti-viral agent is always present at the time of infection and dilution of the virus at 100 TCIU.
After infection : After incubation for 1 hour at 37° C., the MT4 cells are washed three times with RPMI 1640 medium and cultured on account of 3.10^5 cells per milliliter of each of the concentration of the compounds to be tested on plates of 24 wells. When passing at day D3 the MT4 cells are diluted to 1/3. The concentration of the anti-viral agent is maintained. Each day occurrence of syncithia is observed under the microscope to detect any optional delay with respect to the controls HIV-1. At day D8 the determination of reverse transcriptase is carried out. When the cells are not infected thus it is a protection by the tested anti-viral agent.
The compounds the synthesis of which has been described in this patent application and the related structures given in the previous prior art, have an affect on the inhibition of the replication of BRU HIV-1 virus (BRU beeing the vital strain experienced) in the case where the infected cells are of the type MT4.
In the table I they have been described the results of the tests. Column 1 provides the names of the most representative studied compounds and in column 2 they are reported the so-called IC50 values (concentration of the component giving a 50% inhibition of the replication of HIV in the infected MT4 cells, measured at day D7 after infection). In observing and counting the number of formed syncitia in relation with that counted in the case of infected MT4 cells but untreated with antiviral compound, the value IC50 is determined.

[2] = tested on: duck hepatitis B virus (DHBV); test: Anti-HBV test: effect on the replication of the duck hepatitis B virus (DHBV) in infected duck hepatocytes (viral DNA); format: cell-based; details: Hepatocyte, 240 h, read-out: IC50, inhibition of the replication of DHBV virus
Text: Among the several methodologies used for evaluating the activity of compounds on Hepatitis B virus (HBV), the pattern of Hepatitis B virus of the duck (Duck HBV) has been utilized (J. Med. Virology (1990) 31 82-89; Viral Hepatitis and Liver disease (1988) 506-509; Hepatology (1989) 10 186-191). The material of culture to test <<in vitro>> the anti HBV activity of the compounds is made of duck hepatocytes infected by the duck Hepatitis B virus (DHBV) (Antimicrob. Agents Chemother. (1989) 33 336-339; J. Med. Virology 40,59-64; Antivir Res. (1993) 21, 155-171; Antimicrob. Agents Chemother. (1993) 37 1539-1542). Indeed the Hepatitis B virus of the duck is recognized as being very close to the human hepatitis B virus (Viral Hepatitis and Liver Disease (1988) 526-529. Antiviral Research (1987) 8189-199). Under standardized conditions (Virology (1989) 171 564-572) the cultures of duck hepatocytes allow the complete replication of DHBV. The antiviral activity of the tested compounds has been measured as a function of the amount of viral DNA produced during 10 days of culture of the infected hepatocytes.
A young male duck 3 weeks old, affected by DHBV, is used for the production of hepatocytes. The duck is killed under anesthesia and the isolation of hepatocytes is carried out using the methodology of Guillouzou (Research in isolated and cultured hepatocytes, J. Libbey Eurotex Ltd / INSERM, 1986). The cells are cultured in the Leibowitz's medium and 5 μg/ml bovine insuline, 7×10^-5 mole cortisone hemisuccinate and 1,5% dimethylsulfoxide (DMSO) are added thereto. The density of the cells is 8×10^6 cells, they are sprayed in culture boxes of 100×20 mm. The tested compounds are added to the culture after the spread out of the cells. The medium is renewed every day, during 10 days. The production of viral DNA of the duck hepatitis B virus in the cells surpernatant is determined by means of hybridation method "Dot blot" according to Fourel and al. (Viral Hepatitis and Liver Disease, 1988, 506-509; Hepatology, 1989, 10, 186-191). Inhibition is expressed as a percentage of the DNA amount present on the supernatant of cells with regard to a culture infected by DHBV untreated with a nucleosidic derivative.
The most representative described compounds have been tested for their effect on the replication of the duck virus HBV (DHBV) along the protocol exposed in the experimental part of this document.

[3] = Human immunodeficiency virus 1, BRU HIV-1, MT4 cells, syncitia count, day D7 after infection, read-out: IC50 (concentration giving a 50% inhibition of the replication of HIV in the infected MT4 cells)
[4] = duck hepatocytes infected by DHBV, viral DNA in supernatant, dot blot, 10 days of culture

Row | SMILES | IC50 [1, 3] [nM] | IC50 [2, 4] [nM] | IC50 ([1]; Human immunodeficiency virus 1, MT4, read-out: IC50 (concentration giving a 50% inhibition of the replication of HIV in the infected MT4 cells)) [nM] | IC50 [2] [nM]
1 | Nc1ccn([C@H]2CS[C@@H](CO)O2)c(=O)n1 [BCH-189, 2',3'-dideoxy 3'-thiacytidine, reference compound] | 1000 | 1000 ± 500 | – | –
2 | O=C(Nc1ccn([C@@H]2CS[C@H](CO)O2)c(=O)n1)c1cnc2ccccc2c1 (relative stereo) [Compound 8] | 10000 | 2000 | – | –
3 | C[n+]1cc(C(=O)Nc2ccn([C@@H]3CS[C@H](CO)O3)c(=O)n2)cc2ccccc21 (relative stereo) [Compound 9, cis 2-hydroxymethyl 5-[N^4-(1"-methyl 3"-quinolinyicarbonyl)cytosin-1'yl]-1,3-oxathiolane] | – | – | > 100000 | 2000
4 | O=C(Nc1ccn([C@@H]2CS[C@H](CO)O2)c(=O)n1)c1cccnc1Nc1cccc(C(F)(F)F)c1 (relative stereo) [Compound 11, cis 2-hydroxymethyl-5-[N^4-(2-(a,a,a-trifluoro-m-toluidino)nicotinyl)-cytosin-1'yl]-1,3-oxathiolane] | < 100000 | – | – | –
5 | O=C(Nc1ccn([C@@H]2CS[C@H](CO)O2)c(=O)n1)c1cccnc1 (relative stereo) [Compound 2, Cis 2-(hydroxymethyl)-5 [N^4-(3"-pyridinylcarbonyl)cytosin-1'-yl]-1,3-oxathiolan] | 100 to 1000 | 2000 ± 500 | – | –
6 | CN1C=C(C(=O)Nc2ccn([C@@H]3CS[C@H](CO)O3)c(=O)n2)Cc2ccccc21 (relative stereo) [Compound 10, cis 2-hydroxymethyl 5-[N^4-(1"-methyl 1", 4"-dihydro 3"-quinolinylcarbonyl)cytosin-1'yl]-1,3-oxathiolane] | 1000 to 10000 | 2000 | – | –
